The NIST ThermoML archive (doi:10.1021/je501054c)
Where “and” joins values, the source holds several entries; their conditions need not be identical. Equal values may be shown once.

Assay: mn = molality of the nth substance listed, in mol/kg
Details: 100 kPa, Liquid; for viscosity: Capillary tube (Ostwald / Ubbelohde) method; for mass density: Vibrating tube method

C(=NCCN=Cc1ccccn1)c1ccccn1 [N,N'-bis(2-pyridinylmethylene)-1,2-ethanediamine] + CC#N
Details | mass density, 298.15 K | mass density, 303.15 K | mass density, 308.15 K | mass density, 313.15 K | viscosity, 298.15 K
m1 = 0.0396 | – | – | – | – | 0.3511 mPa·s
m1 = 0.0397 | 778.8 kg/m3 | 770.6 kg/m3 | 762.7 kg/m3 | 754.02 kg/m3 | 0.359 mPa·s
m1 = 0.0412 | 778.98 kg/m3 and 778.99 kg/m3 | 773.9 kg/m3 and 773.55 kg/m3 | 765.55 kg/m3 and 766.66 kg/m3 | 759.53 kg/m3 and 758.9 kg/m3 | 0.352 mPa·s and 0.368 mPa·s
m1 = 0.0707 | 781 kg/m3 | 775.97 kg/m3 | 767.82 kg/m3 | 761.2 kg/m3 | 0.372 mPa·s
m1 = 0.076 | 781.24 kg/m3 | 772.52 kg/m3 | 764.1 kg/m3 | 756.48 kg/m3 | 0.3695 mPa·s
m1 = 0.0794 | 781.36 kg/m3 | 775.79 kg/m3 | 769.83 kg/m3 | 761.42 kg/m3 | 0.367 mPa·s
m1 = 0.085 | 781.2 kg/m3 | 776.45 kg/m3 | 769.8 kg/m3 | 762.5 kg/m3 | 0.357 mPa·s
m1 = 0.1109 | 783.49 kg/m3 | 778.35 kg/m3 | 771.54 kg/m3 | 764.87 kg/m3 | 0.381 mPa·s
m1 = 0.1136 | 783.49 kg/m3 | 778.33 kg/m3 | 771.48 kg/m3 | 764.85 kg/m3 | 0.368 mPa·s
m1 = 0.1159 | 783.49 kg/m3 | 775.25 kg/m3 | 767.32 kg/m3 | 759.62 kg/m3 | 0.374 mPa·s
m1 = 0.1172 | 783.63 kg/m3 | 777.74 kg/m3 | 772.75 kg/m3 | 767.66 kg/m3 | 0.374 mPa·s
m1 = 0.1441 | 785.8 kg/m3 | 780.11 kg/m3 | 774.3 kg/m3 | 767.8 kg/m3 | 0.397 mPa·s
m1 = 0.1487 | 786.71 kg/m3 | 778.7 kg/m3 | 769.46 kg/m3 | 761.79 kg/m3 | 0.395 mPa·s
m1 = 0.1539 | 785.86 kg/m3 | 780.33 kg/m3 | 775.54 kg/m3 | 770.79 kg/m3 | 0.381 mPa·s
m1 = 0.1655 | 785.87 kg/m3 | 780.09 kg/m3 | 774.28 kg/m3 | 767.87 kg/m3 | 0.375 mPa·s
m1 = 0.396 | 779.08 kg/m3 | 773.62 kg/m3 | 766.62 kg/m3 | 760.23 kg/m3 | –
